Assays:
Motilin Receptor = target: T1, Motilin Receptor (Oryctolagus cuniculus, UniProt G1T803); assay: Motilin receptor binding, rabbit colon membranes, 125I porcine motilin; design: Rabbit Colon % Inh / inhibition / % Inh (Rabbit colon): dose or concentration left out as unconfirmed; details: rabbit colon membranes; for inhibition: read-out: Rabbit Colon % Inh; for IC50: read-out: Rabbit Colon IC50
T1 construct: The muscle tissue was homogenized in 10 volumes of 50 mM Tris-Cl; from tissue; host or cells: rabbit colon smooth muscle, crude membrane homogenate

[1] = tested on: motilin induced contraction; assay: Rabbit tissue bath procedure: inhibition of motilin induced contraction of duodenum segments; design: species or system New Zealand White rabbit; details: 3 nM porcine motilin induced contraction, read-out: Tissues IC50
Description: Rabbit Tissue Bath Procedure
One New Zealand White rabbit (Covance) of either sex was euthanized with an IV injection of Sleepaway. The duodenum was quickly excised, the lumen rinsed with saline to clean, and the tissue placed in cold, aerated (95% O2–5% CO2) Tyrodes buffer (NaCl 136.9 mM, KCl 2.7 mM, CaCl2 1.8 mM, MgCl2 1.04 mM, NaH2PO4 0.42 mM, NaHCO3 11.9 mM, Glucose 5.55 mM, pH 7.4). The duodenum, being kept moist at all times, was cleaned of any excess mesenteric tissue, and then cut into 3 cm segments starting at the proximal end. Sixteen tissue segments were usually prepared from each duodenum. These segments were tied on both ends with 3-0 silk suture (Ethicon). One end of the tissue was attached to an S-hook on a custom made glass support rod (Crown Glass Co., Somerville) and the rod plus tissue were placed in a 15 ml isolated tissue bath (Radnoti). The other end of the glass rod was attached to a Grass Force Displacement Transducer FT03. The tissue was maintained in room temperature Tyrodes buffer pH 7.4 and continually gassed with 95% O2— 5% CO2. The tissues were adjusted to 1.0 g resting tension and maintained at that tension throughout the equilibration period. An Ml2 Tissue Bath Computer was used to record and analyze data.
The tissues were washed twice during a 30 minute equilibration period and readjusted to 1 g resting tension as necessary. After equilibration the tissues were challenged with 3 μM Carbachol (Carbamoylcholine Chloride-Sigma). After maximal contraction was attained, the tissues were washed 3 times with Tyrodes. The tissues were allowed a 20 minute resting/equilibration period, during which time they were washed once and readjusted to 1 g resting tension. The tissues were challenged a second time with 3 μM Carbachol, and this contraction was considered as maximal, or 100% contraction. The tissues were washed 3 times, equilibrated for 10 minutes, washed again and readjusted to 1 g resting tension. Vehicle or test compound in 30% DMSO-50 mM HEPES was added directly to the bath and the tissues were incubated for 20 minutes. Test compounds and vehicle were run in duplicate.
The percent inhibition by test compound of the motilin induced contraction was calculated by first determining the ratio of the vehicle contractions with Motilin compared to the Carbachol contractions. This Tissue Adjustment Factor (TAF) was used to determine the value for the potential uninhibited contraction with Motilin for each tissue. The percent inhibition was then determined by dividing the actual Motilin contraction in treated tissues by the potential uninhibited contraction and subtracting this number from 1. IC50 values were determined by graphing results with Kaleidograph graphing program.

[2] = target: T2, motilin receptor preparation (Human antrum tissue) (Homo sapiens, UniProt O43193); assay: 125I-motilin binding to human antral stomach membranes; details: human antrum membranes; for inhibition at 1 µM: read-out: Human Antrum % Inh @1 μM
T2 construct: Human antrum tissue from Analytical Biological Services (Wilmington, Del.) was prepared as a motilin receptor preparation; tissue Analytical Biological Services (Wilmington, Del.); host or cells: human antrum (stomach) muscle tissue, crude membrane homogenate
Description: Human antrum tissue from Analytical Biological Services (Wilmington, Del.) was prepared as a motilin receptor preparation in the following manner. The muscle tissue was homogenized in 10 volumes of 50 mM Tris-Cl, 10 mM MgCl2, 0.1 mg/ml bacitracin, and 0.25 mM Peflabloc, pH 7.5) in a Polytron (29000 rpm, 4×15 seconds). The homogenate was centrifuged at 1000×g for 15 minutes and the supernatant discarded. The pellet was washed twice before being suspended in homogenizing buffer. The crude homogenate was resuspended through a 23 gauge needle before aliquoting and storing at −80° C. The human cloned receptor was prepared from HEK 293 cells overexpressed with the motilin receptor. Cell pellets were thawed and resuspended in 2–3 volumes of homogenizing buffer (10 mM Tris-Cl, 0.2 mM MgCl2, 5 mM KCl, 5 μg/ml aprotinin, leupeptin, and pepstatin A, and 50 μg/ml bacitracin, pH 7.5) and allowed to sit on ice for 15–20 minutes. The suspension was homogenized on ice in a Dounce type homogenizer using 15 strokes. Sucrose and EDTA were added to a final concentration of 0.25M and 1 mM, respectively, and mixed with a few additional strokes. The material was centrifuged at 400×g for 5 minutes, and the supernatant saved. The pellet was re-resuspended twice with 5 ml homogenizing buffer and rehomogenized as before, and the supernatants combined. The supernatant was centrifuged at 100000×g for 1 hour. The pellet is retained and resuspended with 5 ml of homogenizing buffer through a 19 g and 25 g needle. The suspension is aliquoted and stored at −80° C. until used. The binding assay contains the following components (50 mM HEPES, 5 mM MgCl2, and 1 mM EGTA, pH 7.0, 15 mg/ml BSA, 10 μg/ml aprotinin, leupeptin, and pepstatin A, 0.25 mg/ml bacitracin, and 10 mM benzamidine), ^125I-radiolabelled porcine motilin (50000–70000 cpm; specific activity 2000 Ci/mmol), test compound, and membrane protein. After 60 minutes at 30° C., the samples are placed on ice and centrifuged for 1 minute at 13000×g. The pellet is washed twice with 1 ml cold saline, and after removal of the final supernatant, the pellet at the bottom of the tube is counted in a gamma counter. Non-specific binding is measured by the inclusion of 1 μM unlabelled motilin. IC50 values were determined from Kaleidograph curves.
125I-Motilin Binding to Human Antral Stomach Membranes and the Human Cloned Receptor: […]

T1 sequence (G1T803 1-400): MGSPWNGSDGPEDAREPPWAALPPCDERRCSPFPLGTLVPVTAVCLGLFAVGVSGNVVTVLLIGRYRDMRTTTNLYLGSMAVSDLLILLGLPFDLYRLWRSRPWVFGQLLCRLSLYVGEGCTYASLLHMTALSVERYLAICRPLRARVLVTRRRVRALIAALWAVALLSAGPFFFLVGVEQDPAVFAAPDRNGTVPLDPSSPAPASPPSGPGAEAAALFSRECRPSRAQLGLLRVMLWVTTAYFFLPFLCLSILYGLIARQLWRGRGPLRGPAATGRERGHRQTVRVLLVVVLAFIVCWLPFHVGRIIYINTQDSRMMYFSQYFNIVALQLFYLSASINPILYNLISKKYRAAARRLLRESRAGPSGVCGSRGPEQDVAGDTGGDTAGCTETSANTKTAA
T2 sequence (O43193 whole entry): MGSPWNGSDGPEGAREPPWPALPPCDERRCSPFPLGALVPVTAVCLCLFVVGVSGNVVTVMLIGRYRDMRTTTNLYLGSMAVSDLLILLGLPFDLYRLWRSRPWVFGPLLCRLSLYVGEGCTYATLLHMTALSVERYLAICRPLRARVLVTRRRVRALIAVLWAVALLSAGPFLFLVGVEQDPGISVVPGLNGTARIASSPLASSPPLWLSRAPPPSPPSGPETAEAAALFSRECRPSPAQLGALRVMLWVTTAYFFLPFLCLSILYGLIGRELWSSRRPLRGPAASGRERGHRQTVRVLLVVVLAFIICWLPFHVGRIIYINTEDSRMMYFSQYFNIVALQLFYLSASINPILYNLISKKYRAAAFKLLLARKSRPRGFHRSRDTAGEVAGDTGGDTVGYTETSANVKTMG

| SMILES | inhibition (Motilin Receptor) [%] | IC50 (Motilin Receptor) [nM] | IC50 [1] [nM] | Human Antrum % Inh @1 μM [2] [%] | IC50 [2] [nM] | inhibition at 1 µM [2] [%] |
| --- | --- | --- | --- | --- | --- | --- |
| O=C(c1ccc(F)cc1)N(CC1CCCC(N(Cc2cccc(C(F)(F)F)c2)C(=O)C(Cl)(Cl)Cl)C1)c1cccc(OCCN2CCOCC2)c1 (centres unmarked) [compound 96] | 71 | 1680 | > 30 |  |  |  |
| CC(C)(C)C(=O)N(Cc1cccc(Cl)c1)C1CCCC(CN(C(=O)c2ccc(F)cc2)c2cccc(OCCN3CCOCC3)c2)C1 (centres unmarked) [compound 105] | 80 | 390 | 30 |  |  |  |
| O=C(CCCC(=O)N1CCc2ccccc2C1c1ccccc1)N(Cc1ccc(F)cc1)c1cccc(OCCN2CCOCC2)c1 (centres unmarked) [compound 153] | 89 | 81 | 30 |  |  |  |
| O=C(CCCC(=O)N(Cc1ccc(F)cc1)c1cccc(OCCN2CCOCC2)c1)N(CCc1ccccc1)Cc1cccc(Cl)c1 [compound 162] | 85 | 178 | 21 |  |  |  |
| O=C(CCC(=O)N(Cc1ccc(F)cc1)c1cccc(OCCN2CCOCC2)c1)N(CCc1ccccc1)Cc1cccc(Cl)c1 [compound 163] | 85 | 174 | 19 |  |  |  |
| O=C(CCC(=O)N(Cc1cccc(F)c1)c1cccc(OCCN2CCOCC2)c1)N(CCc1ccccc1)Cc1ccccc1 [compound 164] | 84 | 194 | 48 |  |  |  |
| O=C(CCCC(=O)N(Cc1cccc(F)c1)c1cccc(OCCN2CCOCC2)c1)N(CCc1ccccc1)Cc1ccccc1 [compound 169] | 97 | 46 | 240 |  |  |  |
| O=C(CCCC(=O)N(Cc1ccccc1F)c1cccc(OCCN2CCOCC2)c1)N(CCc1ccccc1)Cc1ccccc1 [compound 170] | 81 | 163 | 185 |  |  |  |
| COc1ccc(CN(C(=O)CCCC(=O)N(CCc2ccccc2)Cc2ccccc2)c2cccc(OCCN3CCOCC3)c2)cc1 [compound 171] | 63 | 462 | 230 |  |  |  |
| O=C(CCCC(=O)N(Cc1ccc(Cl)cc1)c1cccc(OCCN2CCOCC2)c1)N(CCc1ccccc1)Cc1ccccc1 [compound 173] | 84 | 290 | 280 |  |  |  |
| CCN(CC)CCOc1cccc(N(Cc2ccc(F)cc2)C(=O)CCCC(=O)N(CCc2ccccc2)Cc2ccccc2)c1 [compound 178] | 100 | 70 | 15 |  |  |  |
| O=C(CCCC(=O)N(Cc1ccc(F)cc1)c1cccc(OCCN2CCNCC2)c1)N(CCc1ccccc1)Cc1ccccc1 [compound 179] | 85 | 240 | 23 |  |  |  |
| O=C(CCCC(=O)N(Cc1ccc(F)cc1)c1cccc(OCCN2CCCC2)c1)N(CCc1ccccc1)Cc1ccccc1 [compound 180] | 99 | 14 | 11 |  |  |  |
| CN(C)CCOc1cccc(N(Cc2ccc(F)cc2)C(=O)CCCC(=O)N(CCc2ccccc2)Cc2ccccc2)c1 [compound 181] | 100 | 93 | 12 |  |  |  |
| O=C(CCCC(=O)N(Cc1ccc(F)cc1)c1cccc(OCCN2CCCCC2)c1)N(CCc1ccccc1)Cc1ccccc1 [compound 182] | 94 | 22 | 53 |  |  |  |
| O=C(CCCC(=O)N(Cc1ccc(F)cc1)c1cccc(OCCCN2CCCCC2)c1)N(CCc1ccccc1)Cc1ccccc1 [compound 188] | 100 | 247 | 92 |  |  |  |
| Cc1c(OCCN2CCCC2)cccc1N(Cc1ccc(F)cc1)C(=O)CCCC(=O)N(CCc1ccccc1)Cc1ccccc1 [compound 196] | 100 | 6 | 4 |  |  |  |
| O=C(CCCC(=O)N(Cc1ccc(F)cc1)c1cccc(OCCN2CCCC2)c1)N(CCc1ccccc1)Cc1cccc([N+](=O)[O-])c1 [compound 197] | 85 | 9 | 7.6 |  |  |  |
| O=C(CCCC(=O)N(Cc1ccc(F)cc1)c1cccc(OCCN2CCCC2)c1)N(CCc1ccccn1)Cc1cccc(Cl)c1 [compound 201] | 93 | 57 | 16.8 |  |  |  |
| O=C(CCCC(=O)N(Cc1ccc(F)cc1)c1cccc(OCCN2CCCC2)c1)N(CCc1ccc(Cl)cc1)Cc1cccc(Cl)c1 [compound 202] | 100 | 330 | 230 |  |  |  |
| O=C(CCCC(=O)N(Cc1ccc(F)cc1)c1cccc(OCCN2CCCC2)c1)N(CCc1cccs1)Cc1cccc(Cl)c1 [compound 204] | 89 | 29 | 3 |  |  |  |
| Cc1c(OCCN2CCCC2)cccc1N(CC1CCCC(N(Cc2cccc(Cl)c2)C(=O)C(Cl)(Cl)Cl)C1)C(=O)c1ccc(F)cc1 (centres unmarked) [compound 209] | 84 | 59 | 21 |  |  |  |
| Cc1c(OCCN2CCCC2)cccc1N(CC1CCCC(N(Cc2ccccc2)C(=O)C(Cl)(Cl)Cl)C1)C(=O)c1ccc(F)cc1 (centres unmarked) [compound 210] | 90 | 86 | 24 |  |  |  |
| O=C(c1ccc(F)cc1)N(CC1CCCC(N(Cc2ccccc2)C(=O)C(Cl)(Cl)Cl)C1)c1cccc(OCCN2CCCC2)c1 (centres unmarked) [compound 213] | 84 | 58 | 27 |  |  |  |
| CC(C)(C)C(=O)N(Cc1ccccc1)C1CCC(CN(C(=O)c2ccc(F)cc2)c2cccc(OCCN3CCCC3)c2)C1 (centres unmarked) [compound 216] |  |  |  | 100 |  |  |
| CC(C)(C)C(=O)N(Cc1cccc(Cl)c1)C1CCC(CN(C(=O)c2ccc(F)cc2)c2cccc(OCCN3CCCC3)c2)C1 (centres unmarked) [compound 217] |  |  |  | 98 |  |  |
| O=C(c1ccc(F)cc1)N(CC1CCC(N(Cc2cccc([N+](=O)[O-])c2)C(=O)C(Cl)(Cl)Cl)C1)c1cccc(OCCN2CCCC2)c1 (centres unmarked) [compound 219] |  |  |  | 98 | 7.6 |  |
| CC(C)(C)C(=O)N(Cc1ccc(F)c(F)c1)[C@@H]1CC[C@H](CN(C(=O)c2ccc(F)cc2)c2cccc(OCCN3CCCC3)c2)C1 [compound 220] |  |  |  |  |  | 92 |
| CC(C)(C)C(=O)N(Cc1ccccc1)C1C=CC(CN(C(=O)c2ccc(F)cc2)c2cccc(OCCN3CCCC3)c2)C1 (centres unmarked) [compound 221] |  |  |  | 94 |  |  |
| CC(C)(C)C(=O)N(Cc1ccc(Cl)c(Cl)c1)C1CCCC(CN(C(=O)c2ccc(F)cc2)c2cccc(OCCN3CCCC3)c2)C1 (centres unmarked) [compound 227] |  |  |  |  | 25 | 100 |
